In test [1] the target is T1, Adrenergic β2 (Homo sapiens, UniProt P07550).
T1 construct: endogenous in cells; host or cells: H292 cells
Description: Adrenergic β2 mediated cAMP production in H292 cells (AlphaScreen cAMP detection). The class given is cell-based. Conditions: for EC50: cAMP production in H292 cells, 300 μM rolipram, 10 minutes with compound, read-out: β2 pEC50 (converted). As for the experimental part:
Adrenergic β2 Mediated cAMP Production
H292 cells were grown in RPMI (Roswell Park Memorial Institute) medium containing, 10% (v/v) FBS (foetal bovine serum) and 2 mM L-glutamine. Cells were grown in 225 cm2 flasks containing 25 mL media in a humidified incubator at 37° C., 5% CO2. Cells were harvested from the flask and passaged at a 1 in 10 dilution once per week.
The media from flasks containing H292 cells was removed, rinsed with 10 mL PBS phosphate buffered saline) and replaced with 10 mL Accutase™ cell detachment solution. Flasks were incubated for 15 minutes in a humidified incubator at 37° C., 5% CO2. The cell suspension was counted and the cells re-suspended in RPMI media (containing 10% (v/v) FBS and 2 mM L-glutamine) at 0.05×10^6 cells per mL. 5000 cells in 100 μL were added to each well of a tissue-culture-treated 96-well plate and the cells incubated overnight in a humidified incubator at 37° C., 5% CO2. The culture media was removed, washed twice with 100 μL assay buffer and replaced with 50 μL assay buffer. Cells were rested at room temperature for 20 minutes after which time 25 μL of rolipram (1.2 mM made up in assay buffer containing 2.4% (v/v) dimethylsulphoxide) was added. Cells were incubated with rolipram for 10 minutes after which time test compounds (made up as ×4 concentrated stocks in assay buffer containing 4% (v/v) dimethylsulphoxide) were added and the cells were incubated for 10 minutes at room temperature. Final rolipram concentration in the assay was 300 μM and final vehicle concentration was 1.6% (v/v) dimethylsulphoxide. The reaction was stopped by removing supernatants, washing once with 100 μL assay buffer and replacing with 50 μL lysis buffer. The cell monolayer was frozen at −80° C. for 30 minutes (or overnight).
The concentration of cAMP (cyclic adenosine monophosphate) in the cell lysate was determined using the AlphaScreen™ methodology. The frozen cell plate was thawed for 20 minutes on a plate shaker then 10 μL of the cell lysate was transferred to a 96-well white plate. 40 μL of mixed AlphaScreen™ detection beads (containing equal volumes of donor beads (pre-incubated with biotinylated cAMP in the dark for 30 minutes) and acceptor beads), was added to each well and the plate incubated at room temperature for 10 hours in the dark. The AlphaScreen™ signal was measured using an EnVision spectrophotometer (Perkin-Elmer Inc.) with the recommended manufacturer's settings. cAMP concentrations were determined by reference to a calibration curve determined in the same experiment using standard cAMP concentrations (made up in lysis buffer in a 96-well tissue-culture-treated plate and frozen/thawed alongside the test samples) and detected using the same protocol. Concentration response curves for agonists were constructed to determine both the pEC50 and Intrinsic Activity.
Background: cAMP levels reflect the balance of adenylyl cyclase and phosphodiesterase activity.

In test [2] the target is T2, recombinant human adrenergic beta 1 receptors (Homo sapiens, UniProt P08588).
T2 construct: purchased Euroscreen
Description: Adrenergic β1 selectivity assay, [125I]-Iodocyanopindolol binding to membranes. Conditions: inhibition of [125I]-Iodocyanopindolol binding, read-out: β1 pEC50 (converted). As to the method:
Membranes containing recombinant human adrenergic beta 1 receptors were obtained from Euroscreen. These were diluted in Assay Buffer (50 mM HEPES, 1 mM EDTA, 120 mM NaCl, 0.1% gelatin, pH 7.4) to provide a final concentration of membranes that gave a clear window between maximum and minimum specific binding.
(§1) Assays were performed in U-bottomed 96-well polypropylene plates. 10 μL [^125I]-Iodocyanopindolol (0.036 nM final concentration) and 10 μL of test compound (10× final concentration) were added to each test well. For each assay plate 8 replicates were obtained for [^125I]-Iodocyanopindolol binding in the presence of 10 μL vehicle (10% (v/v) DMSO in Assay Buffer; defining maximum binding) or 10 μL Propranolol (10 μM final concentration; defining non-specific binding (NSB)). Membranes were then added to achieve a final volume of 100 μL. The plates were incubated for 2 hours at room temperature and then filtered onto PEI coated GF/B filter plates, pre-soaked for 1 hour in Assay Buffer, using a 96-well plate Tomtec cell harvester. Five washes with 250 μL wash buffer (50 mM HEPES, 1 mM EDTA, 120 mM NaCl, pH 7.4) were performed at 4° C. to remove unbound radioactivity. The plates were dried then sealed from underneath using Packard plate sealers and MicroScint-O (50 μL) was added to each well. The plates were sealed (TopSeal A) and filter-bound radioactivity was measured with a scintillation counter (TopCount, Packard BioScience) using a 3-minute counting protocol.
(§2) Total specific binding (B0) was determined by subtracting the mean NSB from the mean maximum binding. NSB values were also subtracted from values from all other wells.

The target of test [3] is T3, recombinant human α1D receptor (Homo sapiens, UniProt P25100).
T3 construct: expressed in transfected cells; host or cells: HEK293
T3 sequence (P25100 1-572): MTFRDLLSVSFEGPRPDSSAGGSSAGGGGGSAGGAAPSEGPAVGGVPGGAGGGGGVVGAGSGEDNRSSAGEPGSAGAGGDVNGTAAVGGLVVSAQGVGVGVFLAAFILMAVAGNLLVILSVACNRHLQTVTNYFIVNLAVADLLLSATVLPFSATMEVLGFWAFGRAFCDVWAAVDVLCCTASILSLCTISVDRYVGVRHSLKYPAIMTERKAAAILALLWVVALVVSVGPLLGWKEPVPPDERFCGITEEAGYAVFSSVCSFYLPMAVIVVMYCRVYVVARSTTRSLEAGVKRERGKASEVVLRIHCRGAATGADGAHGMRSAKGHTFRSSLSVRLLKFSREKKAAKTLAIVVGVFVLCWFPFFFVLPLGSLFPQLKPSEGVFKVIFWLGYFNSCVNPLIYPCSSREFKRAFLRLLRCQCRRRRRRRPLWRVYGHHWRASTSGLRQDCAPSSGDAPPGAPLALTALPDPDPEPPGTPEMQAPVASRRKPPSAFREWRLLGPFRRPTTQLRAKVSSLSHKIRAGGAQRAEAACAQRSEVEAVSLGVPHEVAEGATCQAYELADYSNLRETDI
The test can be described thus: Adrenergic α1D selectivity assay, [3H]-prazosin binding to HEK293 membranes. To be noted: inhibition of [3H]-prazosin binding, HEK293 membranes with recombinant human α1D; read-out: α1D pEC50 (converted). As to the method: These were diluted in Assay Buffer (50 mM HEPES, 1 mM EDTA, 0.1% gelatin, pH 7.4) to provide a final concentration of membranes that gave a clear window between maximum and minimum specific binding.
as §1, with “10 μL [^125I]-Iodocyanopindolol (0.036 nM final concentration) and 10 μL of test compound (10× final concentration) were added to each test well.” left out, “[^3H]-prazosin” for “[^125I]-Iodocyanopindolol”, “BMY7378” for “Propranolol”, “EDTA,” for “EDTA, 120 mM NaCl,”
as §2

Setting [4] is: fraction relative to the maximum activity determined for formoterol in each experiment, H292 cells, cAMP.

Counter-ions that a name gives are not always drawn. Like-named read-outs stand apart in the source and are kept apart here.

Eleven molecules from patent US7951954B2, “Bezothiazol derivatives as Beta2 adrenoreceptor agonists” (AstraZeneca AB, priority 2006, dated 2011) can be followed below.

T1 sequence (P07550 whole entry): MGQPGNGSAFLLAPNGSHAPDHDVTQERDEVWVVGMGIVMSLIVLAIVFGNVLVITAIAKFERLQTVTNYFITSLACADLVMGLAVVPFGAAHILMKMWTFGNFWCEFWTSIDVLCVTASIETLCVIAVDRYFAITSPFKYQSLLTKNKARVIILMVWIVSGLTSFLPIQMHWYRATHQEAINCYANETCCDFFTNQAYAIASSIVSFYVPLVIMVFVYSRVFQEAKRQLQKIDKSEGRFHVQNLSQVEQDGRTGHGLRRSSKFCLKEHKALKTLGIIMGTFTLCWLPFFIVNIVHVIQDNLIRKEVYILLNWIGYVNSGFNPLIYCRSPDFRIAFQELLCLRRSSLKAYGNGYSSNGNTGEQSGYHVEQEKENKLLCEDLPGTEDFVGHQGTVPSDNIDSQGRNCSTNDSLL
T2 sequence (P08588 whole entry): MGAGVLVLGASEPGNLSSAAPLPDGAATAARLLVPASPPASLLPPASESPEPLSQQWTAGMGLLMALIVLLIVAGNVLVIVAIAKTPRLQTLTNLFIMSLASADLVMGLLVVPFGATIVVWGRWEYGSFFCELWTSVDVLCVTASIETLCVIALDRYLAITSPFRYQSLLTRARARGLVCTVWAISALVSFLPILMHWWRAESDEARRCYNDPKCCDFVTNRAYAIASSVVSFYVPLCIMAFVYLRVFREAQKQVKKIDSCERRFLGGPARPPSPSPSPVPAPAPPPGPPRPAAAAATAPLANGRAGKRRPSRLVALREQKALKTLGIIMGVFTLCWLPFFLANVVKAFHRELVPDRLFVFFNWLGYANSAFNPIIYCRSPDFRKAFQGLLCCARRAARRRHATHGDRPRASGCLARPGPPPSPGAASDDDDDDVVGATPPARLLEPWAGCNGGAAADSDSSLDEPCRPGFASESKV

`O=c1[nH]c2c(O)ccc([C@@H](O)CNCCc3cccc(CN4CCCCCC4)c3)c2s1` [Example 71, 7-{2-[2-(3-Azepan-1-ylmethyl-phenyl)-ethylamino]-1R-hydroxy-ethyl}-4-hydroxy-3H-benzothiazol-2-one bis-hydrochloride salt-]: the EC50 is 0.794 nM in test [1], 398 nM in test [2] and 31.6 nM in test [3]. Also, in test [1] (setting [4]), the “Intrinsic Activity” value came to 0.9.

For the molecule `O=c1[nH]c2c(O)ccc([C@@H](O)CNCCc3cccc(CN4CCOCC4)c3)c2s1` [Example 72, 4-Hydroxy-7-{1R-hydroxy-2-[2-(3-morpholin-4-ylmethyl-phenyl)-ethylamino]-ethyl}-3H-benzothiazol-2-one bis-hydrochloride salt], the figures for the EC50 in test [1], in test [2] and in test [3] were 1 nM, 100 nM and 398 nM, respectively. Moreover, the “Intrinsic Activity” value in test [1] (setting [4]) amounted to 0.9.

As for `O=c1[nH]c2c(O)ccc([C@@H](O)CNCCc3cccc(CN4CCCC4)c3)c2s1` [Example 51, 4-Hydroxy-7-{1R-hydroxy-2-[2-(3-pyrrolidin-1-ylmethyl-phenyl)-ethylamino]-ethyl}-3H-benzothiazol-2-one bis-hydrochloride salt], the EC50 was 1 nM in test [1], 1260 nM in test [2] and 1000 nM in test [3]. Further, the “Intrinsic Activity” value in test [1] (setting [4]) came out at 1.1.

For `O=c1[nH]c2c(O)ccc([C@@H](O)CNCCc3cccc(CNCc4ccccn4)c3)c2s1` [Example 61, 4-Hydroxy-7-{1R-hydroxy-2-[2-(3-{[(pyridin-2-ylmethyl)-amino]-methyl}-phenyl)-ethylamino]-ethyl}-3H-benzothiazol-2-one bis-hydrochloride salt], the “Intrinsic Activity” value in test [1] worked out at 0.9. Further, the results for the EC50 in test [2] and in test [3] were 79.4 nM and 316 nM, respectively.

Regarding `CC(Cc1cccc(CNCCc2c(Cl)cccc2Cl)c1)NC[C@H](O)c1ccc(O)c2[nH]c(=O)sc12` (stereo partly drawn) [Example 15, 7-{2-[2-(3-{[2-(2,6-Dichloro-phenyl)-ethylamino]-methyl}-phenyl)-1-methyl-ethylamino]-1R-hydroxy-ethyl}-4-hydroxy-3H-benzothiazol-2-one bis-trifluoroacetate salt], the “Intrinsic Activity” value in test [1] stood at 0.8. The EC50 was 15.8 nM in test [2] and 39.8 nM in test [3].

For `COc1ccccc1CNCc1cccc(CCNC[C@H](O)c2ccc(O)c3[nH]c(=O)sc23)c1` [Example 36, 4-Hydroxy-7-[1R-hydroxy-2-(2-{3-[(2-methoxy-benzylamino)-methyl]-phenyl}-ethylamino)-ethyl]-3H-benzothiazol-2-one bis-trifluoroacetate salt], in test [1], the “Intrinsic Activity” value is given as 0.8. The EC50 was 50.1 nM in test [2] and 200 nM in test [3].

For the molecule `O=c1[nH]c2c(O)ccc([C@@H](O)CNCCc3cccc(CNCCc4cccc[n+]4[O-])c3)c2s1` [Example 40, 4-Hydroxy-7-{1R-hydroxy-2-[2-(3-{[2-(1-oxy-pyridin-2-yl)-ethylamino]-methyl}-phenyl)-ethylamino]-ethyl}-3H-benzothiazol-2-one bis-trifluoroacetate salt], the values for the EC50 in test [1], in test [2] and in test [3] were 2.51 nM, 39.8 nM and 100 nM, respectively. Also, the “Intrinsic Activity” value in test [1] (setting [4]) worked out at 0.8.

For `CC(C)NCc1ccc(CCNC[C@H](O)c2ccc(O)c3[nH]c(=O)sc23)cc1` [Example 53, 4-Hydroxy-7-{1R-hydroxy-2-[2-(4-isopropylaminomethyl)phenyl]ethylamino}-ethyl)-3H-benzothiazol-2-one bis-trifluoroacetate salt], the EC50 was 0.631 nM in test [1], 251 nM in test [2] and 398 nM in test [3]. Also, in test [1] (setting [4]), the “Intrinsic Activity” value was 0.9.

Consider `O=c1[nH]c2c(O)ccc([C@@H](O)CNCCc3cccc(CNCCc4c(Cl)cccc4Cl)c3)c2s1` [Example 1, 7-{2-[2-(3-{[2-(2,6-Dichloro-phenyl)-ethylamino]-methyl}-phenyl)-ethylamino]-1R-hydroxy-ethyl}-4-hydroxy-3H-benzothiazol-2-one bis-trifluoroacetate salt], for which the “Intrinsic Activity” value in test [1] (setting [4]) is listed as 0.8. Further, the EC50 in test [2] is 12.6 nM; in test [3] it was 63.1 nM.

In the case of `O=c1[nH]c2c(O)ccc([C@@H](O)CNCCc3ccc(CNCCc4ccccn4)cc3)c2s1` [Example 22, 4-Hydroxy-7-[1R-hydroxy-2-(2-{4-[(2-(2-pyridyl)ethylamino)methyl]phenyl}-ethylamino)ethyl]-3H-benzothiazol-2-one tris-trifluoroacetate salt], the “Intrinsic Activity” value in test [1] is reported as 1.0. Besides, the values for the EC50 in test [2] and in test [3] were 794 nM and 25.1 nM, respectively.

For the molecule `O=c1[nH]c2c(O)ccc([C@@H](O)CNCCc3cccc(CN[C@@H]4C[C@H]4c4ccc(F)cc4)c3)c2s1` [Example 10, 7-{2-[2-(3-{[2S-(4-Fluoro-phenyl)-cycloprop-1R-ylamino]-methyl}-phenyl)-ethylamino]-1R-hydroxy-ethyl}-4-hydroxy-3H-benzothiazol-2-one bis-trifluoroacetate salt], the EC50 was 0.316 nM in test [1], 200 nM in test [2] and 316 nM in test [3]. The “Intrinsic Activity” value in test [1] (setting [4]) came to 1.0.
